Earlier results on one molecule are cited in US5942547A, “2-Deoxystreptamine derivatives, pharmaceutical compositions thereof and therapeutic methods using same” (priority 1996, dated 1999).

In the series the test system is REV/RRE interaction.

As to `NC[C@@H]1O[C@H](O[C@H]2[C@@H](O)[C@H](O[C@@H]3[C@@H](O)[C@H](N)C[C@H](N)[C@H]3O[C@H]3O[C@H](CN)[C@@H](O)[C@H](O)[C@H]3N)O[C@@H]2CO)[C@H](N)[C@@H](O)[C@@H]1O` [neomycin B], the “disruption of the REV/RRE interaction (in words)” value is “could disrupt the REV/RRE interaction”.
